Assay results taken from paper PMC10607100, “Anticancer and Antiphytopathogenic Activity of Fluorinated Isatins and Their Water-Soluble Hydrazone Derivatives” (International Journal of Molecular Sciences, 2023).
Read-outs that look alike come from different tables or passages of the source.

Assays:
[1] = system: Fusarium oxysporum IBPPM 543; assay: Mycelial radial growth inhibition; type: cell-based; settings: Fusarium oxysporum; for inhibition of growth at 1 µM: 1 nmol/mL; for inhibition of growth at 1 µM / inhibition of growth at 5 µM / inhibition of growth at 20 µM / inhibition of growth at 40 µM: read-out: Inhibition value, I (%); for inhibition of growth at 5 µM: 5 nmol/mL; for inhibition of growth at 20 µM: 20 nmol/mL; for inhibition of growth at 40 µM: 40 nmol/mL; for EC50: day 5, read-out: EC50, µg/mL at Day 5, F. oxysporum
Outline: (§1)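 Compounds mixed into molten GPY agar at various concentrations; centre inoculated with a 5-mm mycelial plug from 10-day cultures and incubated at 27 °C. Colony diameter compared with untreated control until control plate was covered (usually 12 days); ≥4 replicates in two experiments.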

[2] = system: Phytophthora cactorum VKM F-985; assay: Mycelial radial growth inhibition; type: cell-based; settings: for inhibition of growth at 1 µM / inhibition of growth at 5 µM / inhibition of growth at 15 µM / inhibition of growth / inhibition of growth at 40 µM / EC50 / inhibition of growth at 2 µM / inhibition of growth at 3 µM / inhibition of growth at 50 µM: Phytophthora cactorum; for inhibition of growth at 1 µM: 1 nmol/mL; for inhibition of growth at 1 µM / inhibition of growth at 5 µM / inhibition of growth at 15 µM / inhibition of growth / inhibition of growth at 40 µM / inhibition of growth at 2 µM / inhibition of growth at 3 µM / inhibition of growth at 50 µM: read-out: Inhibition value, I (%); for inhibition of growth at 5 µM: 5 nmol/mL; for inhibition of growth at 15 µM: 15 nmol/mL; for inhibition of growth: 27 nmol/mL; for inhibition of growth at 40 µM: 40 nmol/mL; for EC50: read-out: EC50, µg/mL at Day 5, P. cactorum; for inhibition of growth at 2 µM: 2 nmol/mL; for inhibition of growth at 3 µM: 3 nmol/mL; for inhibition of growth at 50 µM: 50 nmol/mL
Outline: as §1

[3] = system: five representative phytopathogens; assay: Agar-well diffusion, bactericidal activity over the panel of phytopathogens; type: cell-based; settings: for zone of inhibition at 2000 µM: 36 h, 2 mM solutions, dependent on the test system used, read-out: inhibition zone width (mm), range over the test systems; for bactericidal activity: Table S2
Outline: (§2)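 Bacteria spread on agar (BP medium; GYCa for X. campestris; pH 7.2–7.4) with 6-mm wells, each receiving 150 μL compound solution. Cultures grown at 28 °C; growth-inhibition zone width measured after 36–40 h.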

[4] = system: Xanthomonas campestris B-610; assay: Agar-well diffusion, bactericidal activity; type: cell-based; settings: Xanthomonas campestris
Outline: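 Agar-well diffusion on GYCa agar (pH 7.2–7.4) seeded with bacterial suspension; 150 μL compound solution placed in 6-mm wells. Inhibition zone width measured after 36–40 h incubation.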

[5] = system: Pectobacterium carotovorum subsp. carotovorum MI; assay: Agar-well diffusion, bactericidal activity; type: cell-based; settings: Pectobacterium carotovorum, 2 mM/L
Outline: as §2

[6] = system: Pseudomonas fluorescens EL-2.1; assay: Agar-well diffusion, bactericidal activity; type: cell-based; settings: Pseudomonas fluorescens, EL2.1, 2 mM/L
Outline: as §2

[7] = system: Micrococcus luteus B-109; assay: Agar-well diffusion, bactericidal activity; type: cell-based; settings: Micrococcus luteus
Outline: as §2

[8] = system: Pectobacterium atrosepticum 1043; assay: Agar-well diffusion, bactericidal activity; type: cell-based; settings: Pectobacterium atrosepticum, 1043, 2 mM/L
Outline: as §2

[9] = IBPPM543, 72 h, age of the fungus 3 days
[10] = IBPPM543, 120 h, age of the fungus 5 days
[11] = IBPPM543, 168 h, age of the fungus 7 days
[12] = IBPPM543, 216 h, age of the fungus 9 days
[13] = 120 h, age of the fungus 5 days
[14] = 168 h, age of the fungus 7 days
[15] = 216 h, age of the fungus 9 days
[16] = B610, 2 mM/L, average of 3 experiments, read-out: width of the inhibition zone (mm), X. campestris
[17] = B610, Table S3, 2 mM/L, read-out: Inhibition zone width (mm), not less
[18] = average of 3 experiments, read-out: width of the inhibition zone (mm), P. carotovorum subsp. carotovorum
[19] = Table S3, read-out: Inhibition zone width (mm), not less
[20] = average of 3 experiments, read-out: width of the inhibition zone (mm), Ps. fluorescens
[21] = B109, 2 mM/L, average of 3 experiments, read-out: width of the inhibition zone (mm), M. luteus
[22] = B109, Table S3, 2 mM/L, read-out: Inhibition zone width (mm), not less
[23] = average of 3 experiments, read-out: width of the inhibition zone (mm), P. atrosepticum

Structure (SMILES): O=C(C[n+]1ccccc1)NN=C1C(=O)N(Cc2c(F)cccc2Cl)c2ccc(F)cc21.[Cl-] [Compound 5b, 1-(2-(2-(5-Fluoro-1-(6-chloro-2-fluorobenzyl)-2-oxoindolin-3-ylidene)hydrazinyl)-2-oxoethyl)pyridin-1-ium chloride]
- melting point: 152 to 153 °C
- inhibition of growth at 1 µM [1, 9]: 9%
- inhibition of growth at 5 µM [1, 9]: 33%
- inhibition of growth at 20 µM [1, 9]: 41%
- inhibition of growth at 40 µM [1, 9]: 53%
- EC50 ([1]; IBPPM543, 120 h): 14.8 µg/mL
- inhibition of growth at 1 µM [1, 10]: 10%
- inhibition of growth at 5 µM [1, 10]: 34%
- inhibition of growth at 20 µM [1, 10]: 42%
- inhibition of growth at 40 µM [1, 10]: 56%
- inhibition of growth at 1 µM [1, 11]: 9%
- inhibition of growth at 5 µM [1, 11]: 25%
- inhibition of growth at 20 µM [1, 11]: 34%
- inhibition of growth at 40 µM [1, 11]: 40%
- inhibition of growth at 1 µM [1, 12]: 0%
- inhibition of growth at 5 µM [1, 12]: 19%
- inhibition of growth at 20 µM [1, 12]: 28%
- inhibition of growth at 40 µM [1, 12]: 31%
- inhibition of growth at 1 µM ([2]; 72 h, age of the fungus 3 days): 18%
- inhibition of growth at 5 µM ([2]; 72 h, age of the fungus 3 days): 27%
- inhibition of growth at 15 µM ([2]; 72 h, age of the fungus 3 days): 30%
- inhibition of growth ([2]; 72 h, age of the fungus 3 days): 33%
- inhibition of growth at 40 µM ([2]; 72 h, age of the fungus 3 days): 44%
- EC50 ([2]; 120 h, day 5): 18.2 µg/mL
- inhibition of growth at 1 µM [2, 13]: 26%
- inhibition of growth at 5 µM [2, 13]: 35%
- inhibition of growth at 15 µM [2, 13]: 38%
- inhibition of growth [2, 13]: 43%
- inhibition of growth at 40 µM [2, 13]: 50%
- inhibition of growth at 1 µM [2, 14]: 11%
- inhibition of growth at 5 µM [2, 14]: 24%
- inhibition of growth at 15 µM [2, 14]: 29%
- inhibition of growth [2, 14]: 31%
- inhibition of growth at 40 µM [2, 14]: 44%
- inhibition of growth at 1 µM [2, 15]: 6%
- inhibition of growth at 5 µM [2, 15]: 16%
- inhibition of growth at 15 µM [2, 15]: 19%
- inhibition of growth [2, 15]: 26%
- inhibition of growth at 40 µM [2, 15]: 39%
- zone of inhibition at 2000 µM [3]: 2.5 to 4 mm
- bactericidal activity [3]: moderate bactericidal activity
- zone of inhibition at 2000 µM [4, 16]: 3 mm
- zone of inhibition at 2000 µM [4, 17]: ≥ 3 mm
- zone of inhibition at 2000 µM [5, 18]: 3 mm
- zone of inhibition at 2000 µM [5, 19]: ≥ 3 mm
- zone of inhibition at 2000 µM [6, 20]: 2.5 mm
- zone of inhibition at 2000 µM [6, 19]: ≥ 2 mm
- zone of inhibition at 2000 µM [7, 21]: 4 mm
- zone of inhibition at 2000 µM [7, 22]: ≥ 4 mm
- zone of inhibition at 2000 µM [8, 23]: 4 mm
- zone of inhibition at 2000 µM [8, 19]: ≥ 4 mm

Structure (SMILES): O=C(C[n+]1ccccc1)NN=C1C(=O)N(Cc2ccccc2F)c2ccc(F)cc21.[Cl-] [Compound 5a, 1-(2-(2-(5-Fluoro-1-(2-fluorobenzyl)-2-oxoindolin-3-ylidene)hydrazinyl)-2-oxoethyl)pyridin-1-ium chloride]
- melting point: 180 to 182 °C
- inhibition of growth at 1 µM [1, 9]: 34%
- inhibition of growth at 5 µM [1, 9]: 39%
- inhibition of growth at 20 µM [1, 9]: 41%
- inhibition of growth at 40 µM [1, 9]: 52%
- EC50 ([1]; IBPPM543, 120 h): 13.8 µg/mL
- inhibition of growth at 1 µM [1, 10]: 25%
- inhibition of growth at 5 µM [1, 10]: 31%
- inhibition of growth at 20 µM [1, 10]: 45%
- inhibition of growth at 40 µM [1, 10]: 54%
- inhibition of growth at 1 µM [1, 11]: 20%
- inhibition of growth at 5 µM [1, 11]: 23%
- inhibition of growth at 20 µM [1, 11]: 42%
- inhibition of growth at 40 µM [1, 11]: 51%
- inhibition of growth at 1 µM [1, 12]: 7%
- inhibition of growth at 5 µM [1, 12]: 18%
- inhibition of growth at 20 µM [1, 12]: 23%
- inhibition of growth at 40 µM [1, 12]: 36%
- antagonistic effect superior to that of N-cetylpyridinium chloride ([2]; 5 days of growth): 2.3 times
- antagonistic effect superior to that of fludioxonil ([2]; 5 days of growth): 2.0 times
- inhibition of growth at 2 µM ([2]; 72 h, age of the fungus 3 days): 26%
- inhibition of growth at 3 µM ([2]; 72 h, age of the fungus 3 days): 32%
- inhibition of growth ([2]; 72 h, age of the fungus 3 days): 40%
- inhibition of growth at 40 µM ([2]; 72 h, age of the fungus 3 days): 47%
- inhibition of growth at 50 µM ([2]; 72 h, age of the fungus 3 days): 52%
- EC50 ([2]; 120 h, day 5): 15 µg/mL
- inhibition of growth at 2 µM [2, 13]: 20%
- inhibition of growth at 3 µM [2, 13]: 32%
- inhibition of growth [2, 13]: 44%
- inhibition of growth at 40 µM [2, 13]: 53%
- inhibition of growth at 50 µM [2, 13]: 62%
- inhibition of growth at 2 µM [2, 14]: 15%
- inhibition of growth at 3 µM [2, 14]: 28%
- inhibition of growth [2, 14]: 31%
- inhibition of growth at 40 µM [2, 14]: 43%
- inhibition of growth at 50 µM [2, 14]: 45%
- inhibition of growth at 2 µM [2, 15]: 8%
- inhibition of growth at 3 µM [2, 15]: 19%
- inhibition of growth [2, 15]: 25%
- inhibition of growth at 40 µM [2, 15]: 36%
- inhibition of growth at 50 µM [2, 15]: 38%
- EC50, µg/mL at Day 5, P. cactorum ([2]; day 5): 15.12 µg/mL
- zone of inhibition at 2000 µM [3]: 3 to 6 mm
- bactericidal activity [3]: moderate bactericidal activity
- zone of inhibition at 2000 µM [4, 16]: 3.5 mm
- zone of inhibition at 2000 µM [4, 17]: ≥ 3 mm
- zone of inhibition at 2000 µM [5, 18]: 3 mm
- zone of inhibition at 2000 µM [5, 19]: ≥ 3 mm
- zone of inhibition at 2000 µM [6, 20]: 4 mm
- zone of inhibition at 2000 µM [6, 19]: ≥ 4 mm
- zone of inhibition at 2000 µM [7, 21]: 4 mm
- zone of inhibition at 2000 µM [7, 22]: ≥ 4 mm
- zone of inhibition at 2000 µM [8, 23]: 6 mm
- zone of inhibition at 2000 µM [8, 19]: ≥ 6 mm
